This is an account of results in US20260184710A1, “CASITAS B-LINEAGE LYMPHOMA PROTOONCOGENE B (CBL-B) DEGRADING COMPOUNDS AND ASSOCIATED METHODS OF USE” (Arvinas Operations, Inc., priority 2022, published 2026).

The structures appear in SMILES notation.

For assay [1], the target named is T1, Cbl-b (Homo sapiens, UniProt Q13191).
T1 construct: Cbl-b-HiBit KI Jurkat Cells were purchased from Promega; host or cells: Cbl-b-HiBiT knock-in Jurkat cells
The assay is described as follows: Cbl-b Degradation Method A (FACS, anti-Cbl-b antibody staining). The settings on record: Cbl-b-HiBit KI Jurkat Cells, incubated at least 20 hours; for DC50: half maximal degradation, read-out: Cbl-b Degredation Method A IC50; for Dmax: Jurkat, maximum degradation observed, read-out: Cbl-b Degredation Method A Dmax (%). Type of assay: cell-based. An outline of the steps: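 Readout is flow cytometry of fixed, permeabilized cells immunostained for Cbl-b (primary 1:200, AF488 secondary). Cells were Cbl-b-HiBit knock-in Jurkat, exposed to compound ≥20 h at 37 °C; half-maximal degradation concentration (DC50) and maximal degradation (Dmax) calculated relative to control.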

Assay [2] concerns the target T1, Cbl-b. The assay is described as follows: Cbl-b Degradation Method B (Nano-Glo HiBiT lytic detection). The settings on record: Cbl-b-HiBit KI Jurkat Cells, incubated at least 6-24 hours; for DC50: half maximal degradation, read-out: Cbl-b Degredation Method B IC50; for Dmax: maximum degradation observed, read-out: Cbl-b Degredation Method B Dmax (%). The assay is classed as cell-based. An outline of the steps: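 An 11-point, 3-fold compound dilution was applied for 6-24 hours to Jurkat cells carrying HiBiT-tagged endogenous Cbl-b. Lytic HiBiT luminescence quantified residual protein. Outputs are DC50 and Dmax relative to DMSO control.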

T1 sequence (Q13191 whole entry): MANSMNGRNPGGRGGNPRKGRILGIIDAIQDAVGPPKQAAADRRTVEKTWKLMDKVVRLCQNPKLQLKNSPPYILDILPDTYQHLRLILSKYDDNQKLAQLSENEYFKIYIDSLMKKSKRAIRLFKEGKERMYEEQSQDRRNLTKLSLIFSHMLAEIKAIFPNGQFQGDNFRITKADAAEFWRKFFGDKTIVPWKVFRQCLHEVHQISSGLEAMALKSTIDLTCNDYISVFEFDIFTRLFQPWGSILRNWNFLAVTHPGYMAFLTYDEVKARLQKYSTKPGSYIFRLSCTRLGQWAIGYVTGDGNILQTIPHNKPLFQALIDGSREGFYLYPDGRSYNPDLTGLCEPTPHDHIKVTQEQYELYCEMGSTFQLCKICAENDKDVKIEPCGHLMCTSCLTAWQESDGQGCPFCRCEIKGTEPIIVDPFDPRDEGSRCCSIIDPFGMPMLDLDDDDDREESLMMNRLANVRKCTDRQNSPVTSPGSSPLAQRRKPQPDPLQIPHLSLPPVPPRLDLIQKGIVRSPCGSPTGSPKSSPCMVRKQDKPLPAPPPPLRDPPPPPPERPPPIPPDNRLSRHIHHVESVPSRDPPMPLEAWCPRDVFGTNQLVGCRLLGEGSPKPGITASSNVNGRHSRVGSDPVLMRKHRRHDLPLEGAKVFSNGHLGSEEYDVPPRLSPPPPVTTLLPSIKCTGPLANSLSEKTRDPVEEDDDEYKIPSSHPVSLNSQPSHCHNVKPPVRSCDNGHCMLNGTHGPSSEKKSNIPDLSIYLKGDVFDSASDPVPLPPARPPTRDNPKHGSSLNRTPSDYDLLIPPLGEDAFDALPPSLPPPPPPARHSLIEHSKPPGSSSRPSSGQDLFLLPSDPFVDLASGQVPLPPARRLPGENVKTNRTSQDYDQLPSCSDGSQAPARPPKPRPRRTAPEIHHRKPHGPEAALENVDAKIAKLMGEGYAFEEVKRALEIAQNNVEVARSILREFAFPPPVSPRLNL

In the case of `Cn1cnnc1C(c1cccc(N2Cc3c(cc(CN4CCC[C@H](CN5CCN(C[C@H]6CC[C@@H](OC7CCN(c8ccc9c(c8F)CN(C8CCC(=O)NC8=O)C9=O)CC7)CC6)CC5)C4)cc3C(F)(F)F)C2=O)c1)C1CCC1` (stereo partly drawn) [Example 158, 3-[4-fluoro-1-oxo-5-(4-{[(1r,4r)-4-[(4-{[(3S)-1-[(2-{3-[cyclobutyl(4-methyl-4H-1,2,4-triazol-3-yl)methyl]phenyl}-3-oxo-7-(trifluoromethyl)-2,3-dihydro-1H-isoindol-5-yl)methyl]piperidin-3-yl]methyl}piperazin-1-yl)methyl]cyclohexyl]oxy}piperidin-1-yl)-2,3-dihydro-1H-isoindol-2-yl]piperidine-2,6-dione], the DC50 in assay [1] and in assay [2] was < 5 nM in each case. The Dmax in assay [1] was > 70%; in assay [2], 35 to 70%.

For the compound `Cn1cnnc1[C@]1(c2cccc(N3Cc4c(cc(CN5CCC[C@H](CN6CCN(C[C@H]7CC[C@@H](OC8CCN(c9ccc%10c(c9F)CN(C9CCC(=O)NC9=O)C%10=O)CC8)CC7)CC6)C5)cc4C(F)(F)F)C3=O)c2)C[C@H](C)C1` (stereo partly drawn) [Example 159, 3-[4-fluoro-1-oxo-5-(4-{[(1r,4r)-4-[(4-{[(3S)-1-[(3-oxo-2-{3-[(1s,3r)-3-methyl-1-(4-methyl-4H-1,2,4-triazol-3-yl)cyclobutyl]phenyl}-7-(trifluoromethyl)-2,3-dihydro-1H-isoindol-5-yl)methyl]piperidin-3-yl]methyl}piperazin-1-yl)methyl]cyclohexyl]oxy}piperidin-1-yl)-2,3-dihydro-1H-isoindol-2-yl]piperidine-2,6-dione], in assay [1], the DC50 was < 5 nM and the Dmax was > 70%. Besides, in assay [2], the DC50 is < 5 nM and the Dmax was in the range of 35 to 70%.

Take `CC1c2nc(N3CCC(O[C@H]4CC[C@@H](CN5CCN(C[C@H]6CCCN(Cc7cc8c(c(C(F)(F)F)c7)CN(c7cccc(C9(Cc%10nncn%10C)COC9)c7)C8=O)C6)CC5)CC4)CC3)ccc2C(=O)N1C1CCC(=O)NC1=O` (stereo partly drawn) [Example 160, 3-[7-methyl-5-oxo-2-(4-{[(1r,4r)-4-[(4-{[(3S)-1-{[2-(3-{3-[(4-methyl-4H-1,2,4-triazol-3-yl)methyl]oxetan-3-yl}phenyl)-3-oxo-7-(trifluoromethyl)-2,3-dihydro-1H-isoindol-5-yl]methyl}piperidin-3-yl]methyl}piperazin-1-yl)methyl]cyclohexyl]oxy}piperidin-1-yl)-5H,6H,7H-pyrrolo[3,4-b]pyridin-6-yl]piperidine-2,6-dione]: in assay [1], the DC50 is < 5 nM and the Dmax was in the range of 35 to 70%. Besides, in assay [2], the DC50 is < 5 nM and the Dmax was 35 to 70%.

Take `Cn1cnnc1C1(c2cccc(N3Cc4c(cc(CN5CCC[C@H](CN6CCN(C[C@H]7CC[C@@H](OC8CCN(c9ccc%10c(c9F)CN(C9CCC(=O)NC9=O)C%10=O)CC8)CC7)CC6)C5)cc4C(F)(F)F)C3=O)c2)COC1` (stereo partly drawn) [Example 161, 3-[4-fluoro-1-oxo-5-(4-{[(1r,4r)-4-[(4-{[(3S)-1-[(2-{3-[3-(4-methyl-4H-1,2,4-triazol-3-yl)oxetan-3-yl]phenyl}-3-oxo-7-(trifluoromethyl)-2,3-dihydro-1H-isoindol-5-yl)methyl]piperidin-3-yl]methyl}piperazin-1-yl)methyl]cyclohexyl]oxy}piperidin-1-yl)-2,3-dihydro-1H-isoindol-2-yl]piperidine-2,6-dione]: the DC50 in assay [1] is 5 to 50 nM; in assay [2], > 500 nM. Moreover, the Dmax in assay [1] was < 35%.

Consider `Cn1cnnc1CC1(c2cccc(N3Cc4c(cc(CN5CCC[C@H](CN6CCN(C[C@H]7CC[C@@H](OC8CCN(c9ccc%10c(c9F)CN(C9CCC(=O)NC9=O)C%10=O)CC8)CC7)CC6)C5)cc4C(F)(F)F)C3=O)c2)CC1` (stereo partly drawn) [Example 162, 3-[4-fluoro-1-oxo-5-(4-{[(1r,4r)-4-[(4-{[(3S)-1-{[2-(3-{1-[(4-methyl-4H-1,2,4-triazol-3-yl)methyl]cyclopropyl}phenyl)-3-oxo-7-(trifluoromethyl)-2,3-dihydro-1H-isoindol-5-yl]methyl}piperidin-3-yl]methyl}piperazin-1-yl)methyl]cyclohexyl]oxy}piperidin-1-yl)-2,3-dihydro-1H-isoindol-2-yl]piperidine-2,6-dione], for which, in assay [1], the DC50 is < 5 nM and the Dmax is > 70%. Further, in assay [2], the DC50 was < 5 nM and the Dmax was > 70%.

As for `COc1c(N2CCC(O[C@H]3CC[C@@H](CN4CCN(C[C@H]5CCCN(Cc6cc7c(c(C(F)(F)F)c6)CN(c6cccc(C8(Cc9nncn9C)COC8)c6)C7=O)C5)CC4)CC3)CC2)ccc2c1CN(C1CCC(=O)NC1=O)C2=O` (stereo partly drawn) [Example 163, 3-[4-methoxy-1-oxo-5-(4-{[(1r,4r)-4-[(4-{[(3S)-1-{[2-(3-{3-[(4-methyl-4H-1,2,4-triazol-3-yl)methyl]oxetan-3-yl}phenyl)-3-oxo-7-(trifluoromethyl)-2,3-dihydro-1H-isoindol-5-yl]methyl}piperidin-3-yl]methyl}piperazin-1-yl)methyl]cyclohexyl]oxy}piperidin-1-yl)-2,3-dihydro-1H-isoindol-2-yl]piperidine-2,6-dione], in assay [1], the DC50 is < 5 nM and the Dmax is > 70%. Besides, in assay [2], the DC50 is < 5 nM and the Dmax was > 70%.

`Cn1cnnc1CC1(c2cccc(N3Cc4c(cc(CN5CCC[C@H](CN6CCN(C[C@H]7CC[C@@H](OC8CCN(c9ccc%10c(c9Cl)CN(C9CCC(=O)NC9=O)C%10=O)CC8)CC7)CC6)C5)cc4C(F)(F)F)C3=O)c2)COC1` (stereo partly drawn) [Example 165, 3-[4-chloro-1-oxo-5-(4-{[(1r,4r)-4-[(4-{[(3S)-1-{[2-(3-{3-[(4-methyl-4H-1,2,4-triazol-3-yl)methyl]oxetan-3-yl}phenyl)-3-oxo-7-(trifluoromethyl)-2,3-dihydro-1H-isoindol-5-yl]methyl}piperidin-3-yl]methyl}piperazin-1-yl)methyl]cyclohexyl]oxy}piperidin-1-yl)-2,3-dihydro-1H-isoindol-2-yl]piperidine-2,6-dione]: in assay [1], the DC50 was < 5 nM and the Dmax is > 70%. Besides, in assay [2], the DC50 was < 5 nM and the Dmax was > 70%.

Regarding `CC1CN(C[C@H]2CC[C@@H](OC3CCN(c4ccc5c(c4F)CN(C4CCC(=O)NC4=O)C5=O)CC3)CC2)CCN1C[C@H]1CCCN(Cc2cc3c(c(C(F)(F)F)c2)CN(c2cccc(C4(Cc5nncn5C)COC4)c2)C3=O)C1` (stereo partly drawn) [Example 166, 3-[4-fluoro-1-oxo-5-(4-{[(1r,4r)-4-[(3-methyl-4-{[(3S)-1-{[2-(3-{3-[(4-methyl-4H-1,2,4-triazol-3-yl)methyl]oxetan-3-yl}phenyl)-3-oxo-7-(trifluoromethyl)-2,3-dihydro-1H-isoindol-5-yl]methyl}piperidin-3-yl]methyl}piperazin-1-yl)methyl]cyclohexyl]oxy}piperidin-1-yl)-2,3-dihydro-1H-isoindol-2-yl]piperidine-2,6-dione], the DC50 in assay [1] and in assay [2] was < 5 nM in each case. In addition, the Dmax in assay [1] and in assay [2] was > 70% in each case.

With `Cn1cnnc1C[C@]1(c2cccc(N3Cc4c(cc(CN5CCN(C[C@H]6CC[C@H](OC7CCN(c8ccc9c(c8F)CN(C8CCC(=O)NC8=O)C9=O)CC7)CC6)CC5)cc4C(F)(F)F)C3=O)c2)C[C@H](C#N)C1` (stereo partly shown) [Example 167, (1r,3r)-3-[(4-methyl-4H-1,2,4-triazol-3-yl)methyl]-3-(3-{1-oxo-6-[(4-{[(1r,4r)-4-({1-[2-(2,6-dioxopiperidin-3-yl)-4-fluoro-1-oxo-2,3-dihydro-1H-isoindol-5-yl]piperidin-4-yl}oxy)cyclohexyl]methyl}piperazin-1-yl)methyl]-4-(trifluoromethyl)-2,3-dihydro-1H-isoindol-2-yl}phenyl)cyclobutane-1-carbonitrile], in assay [1], the DC50 is < 5 nM and the Dmax is > 70%. In addition, in assay [2], the DC50 is < 5 nM and the Dmax was 35 to 70%.

In the case of `COc1c(N2CCC(O[C@H]3CC[C@H](CN4CCC5(CC4)CN(c4cc6c(c(C(F)(F)F)c4)CN(c4cccc(C7(Cc8nncn8C)COC7)c4)C6=O)C5)CC3)CC2)ccc2c1CN(C1CCC(=O)NC1=O)C2=O` (stereo partly shown) [Example 169, 3-[4-methoxy-1-oxo-5-(4-{[(1r,4r)-4-({2-[2-(3-{3-[(4-methyl-4H-1,2,4-triazol-3-yl)methyl]oxetan-3-yl}phenyl)-3-oxo-7-(trifluoromethyl)-2,3-dihydro-1H-isoindol-5-yl]-2,7-diazaspiro[3.5]nonan-7-yl}methyl)cyclohexyl]oxy}piperidin-1-yl)-2,3-dihydro-1H-isoindol-2-yl]piperidine-2,6-dione], the DC50 in assay [1] is 5 to 50 nM; in assay [2], < 5 nM. Besides, the Dmax in assay [1] and in assay [2] was > 70% throughout.

With `Cc1cc(N2CCC(CN3CCC4(CC3)CN(c3cc5c(c(C(F)(F)F)c3)CN(c3cccc([C@]6(Cc7nncn7C)C[C@@H](C#N)C6)c3)C5=O)C4)CC2)c(F)c2c1C(=O)N(C1CCC(=O)NC1=O)C2` (stereo partly shown) [Example 171, (1r,3r)-3-(3-{6-[7-({1-[2-(2,6-dioxopiperidin-3-yl)-4-fluoro-7-methyl-1-oxo-2,3-dihydro-1H-isoindol-5-yl]piperidin-4-yl}methyl)-2,7-diazaspiro[3.5]nonan-2-yl]-1-oxo-4-(trifluoromethyl)-2,3-dihydro-1H-isoindol-2-yl}phenyl)-3-[(4-methyl-4H-1,2,4-triazol-3-yl)methyl]cyclobutane-1-carbonitrile], the DC50 in assay [1] was 5 to 50 nM; in assay [2], < 5 nM. In addition, the Dmax in assay [1] was > 70%; in assay [2], 35 to 70%.
